Measurements: publication PMC9578396, “Intrinsic Antibacterial Activity of Xeruborbactam In Vitro: Assessing Spectrum and Mode of Action” (Antimicrobial Agents and Chemotherapy, 2022)
In brackets after ≈: the same amount, converted by molar mass. Like-named read-outs stand apart in the source and are kept apart here.

Experiments:
Type in all cases: cell-based
Klebsiella pneumoniae = experiment: microbe, parasite or virus in culture; settings: Klebsiella pneumoniae, strain KPM1026a; read-out: MIC
From the text: (i) Panels of engineered bacterial strains containing various combinations of porin and efflux mutations were used. The construction of all the strains used in the study is described in detail in references, [44], and [45]. (ii) KPC-producing clinical isolates and their derivatives that lost KPC plasmids were used also. These strains and their origins are described in the Table S2. (iii) Finally, KPC-producing clinical isolates enriched in strains with porin mutations were used. The mutations identified include various deletions, insertions, nonsense mutations, and decreased expression. Most of the isolates were obtained from JMI Laboratories or International Health Management Associates (IHMA); they were collected in the course of global surveillance studies.
Bacterial isolates were subjected to broth microdilution susceptibility testing, performed according to Clinical and Laboratory Standards Institute (CLSI) methods ([46]), using panels prepared in-house. […] Xeruborbactam was synthesized at Qpex Biopharma, San Diego, CA. Avibactam was purchased from eNovation Chemicals LLC, Bridgewater, NJ, USA; zidebactam was from MedKoo Biosciences, Inc., Morrisville, NC, and nacubactam was from Advanced ChemBlocks, Hayward, CA. Durlobactam was synthesized at Acme Bioscience, Palo Alto, CA, USA.

Streptococcus pneumoniae = experiment: MIC, Streptococcus pneumoniae; settings: Streptococcus pneumoniae, read-out: MIC
From the text: (§1) Bacterial isolates were subjected to broth microdilution susceptibility testing, performed according to Clinical and Laboratory Standards Institute (CLSI) methods ([46]), using panels prepared in-house. Meropenem was purchased from Sandoz, and all other antibiotics were from Sigma-Aldrich. Xeruborbactam was synthesized at Qpex Biopharma, San Diego, CA. Avibactam was purchased from eNovation Chemicals LLC, Bridgewater, NJ, USA; zidebactam was from MedKoo Biosciences, Inc., Morrisville, NC, and nacubactam was from Advanced ChemBlocks, Hayward, CA. Durlobactam was synthesized at Acme Bioscience, Palo Alto, CA, USA.

Staphylococcus aureus = experiment: MIC, Staphylococcus aureus (MSSA, MRSA)
From the text: as §1

Enterococcus faecalis = experiment: MIC, Enterococcus faecalis
From the text: as §1

SMILES: C[C@H]1COc2c(N3CCN(C)CC3)c(F)cc3c(=O)c(C(=O)O)cn1c23 [Levofloxacin]
- MIC (Klebsiella pneumoniae): 0.06 µg/mL
- MIC (Streptococcus pneumoniae; sp001): 0.5 µg/mL (≈ 1.38 µM)
- MIC (Streptococcus pneumoniae; sp002): 0.5 µg/mL (≈ 1.38 µM)
- MIC (Streptococcus pneumoniae; sp003): 1 µg/mL (≈ 2.77 µM)
- MIC (Streptococcus pneumoniae; sp004): 1 µg/mL (≈ 2.77 µM)
- MIC (Streptococcus pneumoniae; sp005): 0.5 µg/mL (≈ 1.38 µM)
- MIC (Streptococcus pneumoniae; sp006): 0.5 µg/mL (≈ 1.38 µM)
- MIC (Streptococcus pneumoniae; sp007): 1 µg/mL (≈ 2.77 µM)
- MIC (Streptococcus pneumoniae; sp008): 0.5 µg/mL (≈ 1.38 µM)
- MIC (Streptococcus pneumoniae; sp009): 1 µg/mL (≈ 2.77 µM)
- MIC (Streptococcus pneumoniae; sp117): 2 µg/mL (≈ 5.53 µM)
- MIC (Streptococcus pneumoniae; sp118): 1 µg/mL (≈ 2.77 µM)
- MIC (Streptococcus pneumoniae; sp119): 1 µg/mL (≈ 2.77 µM)
- MIC (Streptococcus pneumoniae; sp120): 1 µg/mL (≈ 2.77 µM)
- MIC (Streptococcus pneumoniae; sp121): 1 µg/mL (≈ 2.77 µM)
- MIC (Streptococcus pneumoniae; sp122): 32 µg/mL (≈ 88.6 µM)
- MIC (Streptococcus pneumoniae; sp123): 0.5 µg/mL (≈ 1.38 µM)
- MIC (Streptococcus pneumoniae; sp125): 1 µg/mL (≈ 2.77 µM)
- MIC (Streptococcus pneumoniae; sp126): 1 µg/mL (≈ 2.77 µM)
- MIC (Staphylococcus aureus; Staphylococcus aureus, ATCC 29213 / MSSA): 0.125 µg/mL (≈ 0.346 µM)
- MIC (Staphylococcus aureus; Staphylococcus aureus, MRSA): 0.125 µg/mL (≈ 0.346 µM)
- MIC (Staphylococcus aureus; Staphylococcus aureus, MRSA, sa001, MRSA, read-out: MIC): 8 µg/mL (≈ 22.1 µM)
- MIC (Staphylococcus aureus; Staphylococcus aureus, MRSA, sa010, MRSA, read-out: MIC): 8 µg/mL (≈ 22.1 µM)
- MIC (Staphylococcus aureus; Staphylococcus aureus, MRSA, sa013, MRSA, read-out: MIC): 0.25 µg/mL (≈ 0.692 µM)
- MIC (Staphylococcus aureus; Staphylococcus aureus, MRSA, sa148, MRSA, read-out: MIC): 16 µg/mL (≈ 44.3 µM)
- MIC (Staphylococcus aureus; Staphylococcus aureus, MRSA, sa150, MRSA, read-out: MIC): 8 µg/mL (≈ 22.1 µM)
- MIC (Staphylococcus aureus; Staphylococcus aureus, MRSA, sa151, MRSA, read-out: MIC): 16 µg/mL (≈ 44.3 µM)
- MIC (Staphylococcus aureus; Staphylococcus aureus, MRSA, sa153, MRSA, read-out: MIC): 16 µg/mL (≈ 44.3 µM)
- MIC (Staphylococcus aureus; Staphylococcus aureus, MRSA, sa278, MRSA, read-out: MIC): 32 µg/mL (≈ 88.6 µM)
- MIC (Staphylococcus aureus; Staphylococcus aureus, MRSA, sa279, MRSA, read-out: MIC): 2 µg/mL (≈ 5.53 µM)
- MIC (Staphylococcus aureus; Staphylococcus aureus, MRSA, sa280, MRSA, read-out: MIC): 2 µg/mL (≈ 5.53 µM)
- MIC (Staphylococcus aureus; Staphylococcus aureus, MRSA, sa281, MRSA, read-out: MIC): 32 µg/mL (≈ 88.6 µM)
- MIC (Staphylococcus aureus; Staphylococcus aureus, MSSA): 0.125 µg/mL (≈ 0.346 µM)
- MIC (Staphylococcus aureus; Staphylococcus aureus, MSSA, sa006, MSSA, read-out: MIC): 0.06 µg/mL (≈ 0.166 µM)
- MIC (Staphylococcus aureus; Staphylococcus aureus, MSSA, sa008, MSSA, read-out: MIC): 0.25 µg/mL (≈ 0.692 µM)
- MIC (Staphylococcus aureus; Staphylococcus aureus, MSSA, sa011, MSSA, read-out: MIC): 0.25 µg/mL (≈ 0.692 µM)
- MIC (Staphylococcus aureus; Staphylococcus aureus, MSSA, sa012, MSSA, read-out: MIC): 0.25 µg/mL (≈ 0.692 µM)
- MIC (Staphylococcus aureus; sa002, MSSA): 0.125 µg/mL (≈ 0.346 µM)
- MIC (Staphylococcus aureus; sa003, MSSA): 0.125 µg/mL (≈ 0.346 µM)
- MIC (Staphylococcus aureus; sa004, MSSA): 0.125 µg/mL (≈ 0.346 µM)
- MIC (Staphylococcus aureus; sa005, MSSA): 0.125 µg/mL (≈ 0.346 µM)
- MIC (Staphylococcus aureus; sa007, MSSA): 0.125 µg/mL (≈ 0.346 µM)
- MIC (Staphylococcus aureus; sa009, MSSA): 0.125 µg/mL (≈ 0.346 µM)
- MIC (Staphylococcus aureus; sa152, MRSA): 0.125 µg/mL (≈ 0.346 µM)
- MIC (Enterococcus faecalis; efs003): 0.5 µg/mL (≈ 1.38 µM)
- MIC (Enterococcus faecalis; efs004): 1 µg/mL (≈ 2.77 µM)
- MIC (Enterococcus faecalis; efs005): 1 µg/mL (≈ 2.77 µM)
- MIC (Enterococcus faecalis; efs006): 1 µg/mL (≈ 2.77 µM)
- MIC (Enterococcus faecalis; efs007): 1 µg/mL (≈ 2.77 µM)
- MIC (Enterococcus faecalis; efs026): 0.5 µg/mL (≈ 1.38 µM)
- MIC (Enterococcus faecalis; efs071): 32 µg/mL (≈ 88.6 µM)
- MIC (Enterococcus faecalis; efs072): 16 µg/mL (≈ 44.3 µM)
- MIC (Enterococcus faecalis; efs073): 1 µg/mL (≈ 2.77 µM)
- MIC (Enterococcus faecalis; efs090): 32 µg/mL (≈ 88.6 µM)
- MIC (Enterococcus faecalis; efs091): 32 µg/mL (≈ 88.6 µM)
- MIC (Enterococcus faecalis; efs092): 32 µg/mL (≈ 88.6 µM)
- MIC (Enterococcus faecalis; efs093): 16 µg/mL (≈ 44.3 µM)
- MIC (Enterococcus faecalis; efs094): 32 µg/mL (≈ 88.6 µM)
- MIC (Enterococcus faecalis; efs095): 2 µg/mL (≈ 5.53 µM)
- MIC (Enterococcus faecalis; efs096): 32 µg/mL (≈ 88.6 µM)
